Experimental data reported in US20240109912A1, “TRICYCLIC PYRIMIDINES AS CYCLIN-DEPENDENT KINASE 7 (CDK7) INHIBITORS” (JANSSEN PHARMACEUTICA NV, priority 2020, published 2024).
Several values for one entry are separate records, joined by “and”; a condition that tells them apart may be missing. Equal values may be shown once. Read-outs that look alike come from different tables or passages of the source.

Legend:
[1] = test system: RNA polymerase II Serine 5 phosphorylation in A549 cells overexpressing CDK7 mutant (C312S); assay: Imaging-based cellular RNA PolII Ser5 phosphorylation assay in A549 cells overexpressing CDK7-mutant (C312S); assay type: cell-based, human; settings: for IC50: Homo sapiens, A549, A549 cells overexpressing CDK7 mutant (C312S), read-out: CDK7_ A549 mutant hCDK7(pIC50) (converted)
Summary of the method: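 A stably transduced A549 pool overexpressing CDK7 C312S, a mutant that blocks covalent binding at Cys312, while retaining endogenous wild-type CDK7 was used. Ser5 phosphorylation was measured by imaging, and IC50 values were derived.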

[2] = target: CDK7/cyclinH/MAT1 trimeric complex (Homo sapiens (Human), UniProt P50613); assay: In vitro CDK7 assay, potency of irreversible covalent inhibitors (kinact/KI)
Sequence of CDK7/cyclinH/MAT1 trimeric complex (P50613 whole entry): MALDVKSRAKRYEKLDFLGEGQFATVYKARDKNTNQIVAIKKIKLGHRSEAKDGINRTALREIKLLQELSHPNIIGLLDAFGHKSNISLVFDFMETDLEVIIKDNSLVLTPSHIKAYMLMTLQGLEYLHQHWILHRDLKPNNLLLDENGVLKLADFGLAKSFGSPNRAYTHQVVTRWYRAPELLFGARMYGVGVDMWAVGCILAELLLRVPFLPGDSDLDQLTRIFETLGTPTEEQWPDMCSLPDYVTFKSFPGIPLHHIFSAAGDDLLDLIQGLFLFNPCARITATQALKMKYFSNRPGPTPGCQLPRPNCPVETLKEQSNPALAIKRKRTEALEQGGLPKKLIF
Sequence of CDK7/cyclinH/MAT1 trimeric complex (P51946 whole entry partner): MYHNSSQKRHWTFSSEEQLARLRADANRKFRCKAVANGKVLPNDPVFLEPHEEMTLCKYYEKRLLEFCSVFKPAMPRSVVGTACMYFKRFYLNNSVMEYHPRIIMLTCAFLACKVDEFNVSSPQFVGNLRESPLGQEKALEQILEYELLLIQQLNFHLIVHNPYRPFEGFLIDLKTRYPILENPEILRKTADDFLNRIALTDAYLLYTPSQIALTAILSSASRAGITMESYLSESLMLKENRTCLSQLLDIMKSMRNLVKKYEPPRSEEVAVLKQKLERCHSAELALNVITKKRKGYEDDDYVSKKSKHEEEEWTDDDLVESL
Sequence of CDK7/cyclinH/MAT1 trimeric complex (P51948 whole entry partner): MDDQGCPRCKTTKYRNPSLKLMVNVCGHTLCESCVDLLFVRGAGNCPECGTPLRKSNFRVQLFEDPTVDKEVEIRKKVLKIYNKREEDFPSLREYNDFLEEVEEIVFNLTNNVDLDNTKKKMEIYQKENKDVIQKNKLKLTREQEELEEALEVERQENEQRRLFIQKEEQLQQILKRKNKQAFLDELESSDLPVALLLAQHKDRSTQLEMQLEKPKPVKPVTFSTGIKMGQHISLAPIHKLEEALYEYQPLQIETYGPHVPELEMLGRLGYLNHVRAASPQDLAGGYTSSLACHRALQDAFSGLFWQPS

[3] = test system: RNA polymerase II Serine 5 phosphorylation (CDK7) in A549 cells
[4] = read-out: CDK7 (kinact, s^−1), Table B
[5] = read-out: CDK7 (kinact/KI, M^−1*s^−1), Table B
[6] = CDK7 (20 nM enz.) (KI, μM), 20 nM enz.
[7] = read-out: CDK7 (20 nM enz.) (kinact, s^−1), 20 nM enz.
[8] = read-out: CDK7 (20 nM enz.) (kinact/ KI, M^−1*s^−1), 20 nM enz.

SMILES	IC50 [1]	Ki ([2]; CDK7 (KI(μM)), Table B)	kinact [2, 4]	kinact/KI [2, 5]	IC50 [3]	Ki [2, 6]	kinact [2, 7]	kinact/KI [2, 8]	CDK7 (20 nM enz.) (kinact, s^−1) ([2]; 20 nM enz.)	CDK7 (20 nM enz.) (kinact/ KI, M^−1*s^−1) ([2]; 20 nM enz.)	CDK7_ A549 mutant hCDK7(pIC50) ([1]; A549 cells overexpressing CDK7 mutant (C312S))
C=CC(=O)N1CC(N2CCC(c3ccc4c(c3)Nc3ncnc(-c5ccc(=O)n(C)c5)c3CO4)CC2)C1 [compound 8]	> 10000 nM	0.251 µM	0.000188 s⁻¹	749 M⁻¹ s⁻¹	5500 nM						
C=CC(=O)N1CC(N2CC[C@@H](c3ccc4c(c3)Nc3ncnc(N5CCOCC5)c3CO4)C2)C1 [compound 10]	> 10000 nM	0.38 µM	0.000155 s⁻¹	409 M⁻¹ s⁻¹	1820 nM						
C=CC(=O)N1CCC(N2CCC(c3cc(C)c4c(c3)Nc3ncnc(N5CCOCC5)c3CO4)CC2)C1 (stereo not drawn) [compound 11]	8910 nM				288 nM	0.0411 µM	3.59e-05 s⁻¹	874 M⁻¹ s⁻¹			
C=CC(=O)N1CC[C@H](N2CCC(c3cc(C)c4c(c3)Nc3ncnc(N5CCOCC5)c3CO4)CC2)C1 [compound 12]	> 10000 nM				457 nM and 282 nM	0.191 µM and 0.498 µM	7.04e-05 s⁻¹	368 M⁻¹ s⁻¹	0.0001275 s⁻¹	256.184 M⁻¹ s⁻¹	
C=CC(=O)N1CC[C@@H](N2CCC(c3cc(C)c4c(c3)Nc3ncnc(N5CCOCC5)c3CO4)CC2)C1 [compound 13]	> 10000 nM				275 nM and 234 nM	0.0781 µM and 0.315 µM	5.64e-05 s⁻¹		8.3e-05 s⁻¹		
C=CC(=O)N1CCC(N2CCC(c3ccc4c(c3)Nc3ncnc(N5CCOCC5)c3CO4)CC2)C(F)C1 (stereo not drawn) [compound 15]	> 10000 nM				955 nM	0.632 µM	5.72e-05 s⁻¹	90.5 M⁻¹ s⁻¹			
C=CC(=O)N1CC[C@@H](N2CC(c3cc(C)c4c(c3)Nc3ncnc(N5CCOCC5)c3CO4)C2)C1 [compound 17]	> 10000 nM				380 nM	0.716 µM	6.7e-05 s⁻¹	93.7 M⁻¹ s⁻¹			
C=CC(=O)N1CC[C@H](N2CC(c3cc(C)c4c(c3)Nc3ncnc(N5CCOCC5)c3CO4)C2)C1 [compound 18]	> 10000 nM				380 nM	0.529 µM	8.2e-05 s⁻¹	155 M⁻¹ s⁻¹			
C=CC(=O)N1CCC(N2CC(c3cc(Cl)c4c(c3)Nc3ncnc(C5CCOCC5)c3CO4)C2)CC1 [compound 19]	> 10000 nM				871 nM	0.542 µM	8.14e-05 s⁻¹	150 M⁻¹ s⁻¹			
C=CC(=O)N1CC(N2CCC(c3cc(F)c4c(c3)Nc3ncnc(N5CCOCC5)c3CO4)CC2)C1 [compound 20]	> 10000 nM				646 nM	0.0693 µM	4.85e-05 s⁻¹	699 M⁻¹ s⁻¹			
C=CC(=O)N1CC(N2CCC(c3cc(F)c4c(c3)Nc3ncnc(-c5cnn(C)c5)c3CO4)CC2)C1 [compound 21]	> 10000 nM				832 nM	0.408 µM	5.42e-05 s⁻¹	133 M⁻¹ s⁻¹			
C=CC(=O)N1CC(N2CC[C@@H](c3cc(C)c4c(c3)Nc3ncnc(N5CCOCC5)c3CO4)C2)C1 [compound 22]	> 10000 nM				~617 nM	0.208 µM	6.38e-05 s⁻¹	307 M⁻¹ s⁻¹			
C=CC(=O)N1CC(N2CC[C@H](c3cc(C)c4c(c3)Nc3ncnc(N5CCOCC5)c3CO4)C2)C1 [compound 23]	> 10000 nM				603 nM	0.255 µM	5.86e-05 s⁻¹	230 M⁻¹ s⁻¹			
C=CC(=O)N1CCC(N2CC[C@H](c3cc(C)c4c(c3)Nc3ncnc(N5CCOCC5)c3CO4)C2)CC1 [compound 24]	> 10000 nM				646 nM	0.533 µM	4.78e-05 s⁻¹	89.6 M⁻¹ s⁻¹			
C=CC(=O)N1CCC(N2CC[C@@H](c3cc(C)c4c(c3)Nc3ncnc(N5CCOCC5)c3CO4)C2)CC1 [compound 25]	> 10000 nM				741 nM	1.22 µM	6.34e-05 s⁻¹	52.1 M⁻¹ s⁻¹			
C=CC(=O)N1CCC(N2CC(c3cc(F)c4c(c3)Nc3ncnc(N5CCOCC5)c3[C@H](C)O4)C2)CC1 [compound 26]	> 10000 nM				288 nM	0.336 µM	4.84e-05 s⁻¹	203 M⁻¹ s⁻¹			
C=CC(=O)N1CCC(N2CC(c3cc(F)c4c(c3)Nc3ncnc(N5CCOCC5)c3[C@@H](C)O4)C2)CC1 [compound 27]	> 10000 nM				4790 nM	5.21 µM	4.89e-05 s⁻¹	9.39 M⁻¹ s⁻¹			
C=CC(=O)N1CCC(N2CC(c3cc(C)c4c(c3)Nc3ncnc(N5CCOCC5)c3CO4)C2)C(F)C1 (stereo not drawn) [compound 28]	> 10000 nM				759 nM	0.686 µM	8.88e-05 s⁻¹	129 M⁻¹ s⁻¹			
C=CC(=O)N1CCC(N2CC(c3cc(C)c4c(c3)Nc3ncnc(N5CCOCC5)c3CO4)C2)C(F)C1 (stereo not drawn) [compound 29]					1120 nM	0.78 µM			7.3e-05 s⁻¹	93.6387 M⁻¹ s⁻¹	<5
C=CC(=O)N1CC(N2CC[C@@H](c3cc4c(c(C)n3)OCc3c(ncnc3N3CCS(=O)(=O)CC3)N4)C2)C1 [compound 30]	> 10000 nM				1510 nM	0.175 µM	5.79e-05 s⁻¹	330 M⁻¹ s⁻¹			
C=CC(=O)N1CC(N2CC[C@H](c3cc4c(c(C)n3)OCc3c(ncnc3N3CCS(=O)(=O)CC3)N4)C2)C1 [compound 31]	> 10000 nM				2750 nM	0.226 µM	5.87e-05 s⁻¹	260 M⁻¹ s⁻¹			
C=CC(=O)N1CC(N2CCC(c3ccc4c(c3)Nc3ncnc(C5CCOCC5)c3CO4)CC2)C1 [compound 38]	> 10000 nM	0.251 µM	9.7e-05 s⁻¹	386 M⁻¹ s⁻¹	1150 nM						
C=CC(=O)N1CC(N2CCC(c3cc4c(c(C5CC5)c3)OCc3c(ncnc3N3CCOCC3)N4)CC2)C1 [compound 47]	> 10000 nM				245 nM	0.175 µM	7.35e-05 s⁻¹	420 M⁻¹ s⁻¹			
